“Also recorded” adds a separate entry of the source.
How the values were obtained:
[1] = system: F. nucleatum subsp. nucleatum ATCC 23726 (FNN23); assay: MIC determination and growth inhibition assay (broth microdilution, OD600 over time); assay type: cell-based, Fusobacterium nucleatum subsp. nucleatum ATCC 23726; settings: for Growth inhibition of FNN23: 10 µM compound, 1 × 10^5 CFU/mL, growth inhibition = no visible growth (OD600 <0.01) after 120 h
Experimental: To test CPP-PNA conjugates for growth inhibition, we diluted mid-exponential phase cultures of FNN23 to 1 × 10^5 colony forming units (CFUs) per milliliter in Mueller-Hinton Broth (MHB) and incubated the diluted bacteria with 10 µM of either (KFF)3K- or (RXR)4XB- conjugated PNAs targeting acpP, ftsZ or gyrA. Growth was monitored over time by OD600 measurements, with growth inhibition defined as no visible growth (OD600 <0.01) after 120 h. […] Based on these findings, we conclude that CPP-PNAs targeting fusobacterial mRNAs are not effective in antisense inhibition.
(§1) The following fusobacterial strains were used in this study: Fusobacterium nucleatum subsp. nucleatum ATCC 23726 (FNN23) acquired from the American Type Culture Collection (ATCC), F. nucleatum subsp. nucleatum ATCC 25586 (FNN25), F. nucleatum subsp. vincentii ATCC 49256 (FNV), and F. nucleatum subsp. polymorphum ATCC 10953 (FNP) acquired from the German Collection of Microorganisms and Cell Culture (DSMZ), F. nucleatum subsp. animalis 7_1 (FNA) and F. periodonticum 2_1_31 (FPE) both received as a kind gift from E. Allen-Vercoe (University of Guelph, Canada). All strains were routinely grown at 37°C in 80:10:10 (N2:H2:CO2) anaerobic conditions on 2% agar supplemented BHI plates (BHI, 1% [wt:vol] dried yeast extract, 1% [vol:vol] 50% sterile-filtered glucose solution, 5 µg/mL of hemin; 1% [vol:vol] fetal bovine serum) from frozen 20% glycerol stocks kept at −80°C. For liquid growth, the strains were cultured in Columbia broth (ColB; BD Difco). Precultures were prepared 24 h before inoculating the working culture at a 1:50 dilution in fresh ColB until OD600 0.5 was reached. Cultures were then diluted in non-cation adjusted Mueller-Hinton Broth (MHB, BD Difco) to the desired CFU/mL number. P. gingivalis (DSM 20709) was purchased from DSMZ and grown at 37°C in anaerobic conditions as mentioned above on 2% agar supplemented BHI+ plates (BHI, 1% [wt:vol] dried yeast extract, 1% [vol:vol] 50% sterile filtered glucose solution, 5 µg/ml of hemin; 10% [vol:vol] fetal bovine serum; and 1 µg/mL vitamin K3) for 4 days. For liquid growth, P. gingivalis was cultured in BHI+ medium (BHI, BD Difco supplemented with 1% [vol:vol] 50% sterile-filtered glucose solution, 5 µg/mL of hemin; 1% [vol:vol] fetal bovine serum, and 1 µg/mL vitamin K3). Precultures were prepared 24 h before inoculating the working culture at a 1:20 dilution in BHI+ until OD600 of 0.5 was reached. All plates, media, buffers, and reagents were brought into the anaerobic chamber the day before usage to ensure full oxygen depletion.
To determine the MIC value, broth microdilutions were performed according to the standard protocol with some modifications ([119]). An overnight bacterial culture was diluted in a fresh ColB medium and grown to OD600 0.5 (mid-exponential phase). […] To determine the growth inhibition of P. gingivalis, an o.n. culture grown in BHI+ was diluted 1:1,500 in MHB to obtain 1 × 10^5 CFU/mL. E. coli K12, E. coli Nissle 1917, and S. enterica o.n. cultures grown in MHB were diluted 1:1,800 in fresh MHB to obtain 1 × 10^5 CFU/mL. In total, 190 µL of diluted bacterial cultures were pipetted into a transparent 96-well plate (Nunc, Thermo Fischer Scientific) together with 10 µL of respective 20× CPP or CPP-PNA stock or water as control. Bacterial growth was monitored by measuring OD600 every 20 min with constant shaking in a plate reader (Biotek) under the normal atmospheric environment or positioned in the anaerobic chamber with double orbital shaking every 20 min prior to each measurement with 237 cpm at 37°C for 120 h.

[2] = system: F. nucleatum subsp. nucleatum ATCC 25586 (FNN25); assay: Growth inhibition assay; assay type: cell-based, Fusobacterium nucleatum subsp. nucleatum ATCC 25586; settings: 10 µM, MHB, 1 × 10^5 CFU/mL input, three replicates
Source text: as §1, with “For liquid growth, P. gingivalis was cultured in BHI+ medium (BHI, BD Difco supplemented with 1% [vol:vol] 50% sterile-filtered glucose solution, 5 µg/mL of hemin; 1% [vol:vol] fetal bovine serum, and 1 µg/mL vitamin K3). Precultures were prepared 24 h before inoculating the working culture at a 1:20 dilution in BHI+ until OD600 of 0.5 was reached. All plates, media, buffers, and reagents were brought into the anaerobic chamber the day before usage to ensure full oxygen depletion.” left out
(§2) To determine the MIC value, broth microdilutions were performed according to the standard protocol with some modifications ([119]). […] Bacterial growth was monitored by measuring OD600 every 20 min with constant shaking in a plate reader (Biotek) under the normal atmospheric environment or positioned in the anaerobic chamber with double orbital shaking every 20 min prior to each measurement with 237 cpm at 37°C for 120 h.

[3] = system: F. nucleatum subsp. polymorphum ATCC 10953 (FNP); assay: Growth inhibition assay; assay type: cell-based, Fusobacterium nucleatum subsp. polymorphum ATCC 10953; settings: 10 µM, MHB, 1 × 10^5 CFU/mL input, three replicates
Source text: as §1, with “For liquid growth, P. gingivalis was cultured in BHI+ medium (BHI, BD Difco supplemented with 1% [vol:vol] 50% sterile-filtered glucose solution, 5 µg/mL of hemin; 1% [vol:vol] fetal bovine serum, and 1 µg/mL vitamin K3). Precultures were prepared 24 h before inoculating the working culture at a 1:20 dilution in BHI+ until OD600 of 0.5 was reached. All plates, media, buffers, and reagents were brought into the anaerobic chamber the day before usage to ensure full oxygen depletion.” left out
as §2

[4] = system: Salmonella enterica serovar Typhimurium SL1344; assay: Growth inhibition assay; assay type: cell-based; settings: 10 µM, MHB, 1 × 10^5 CFU/mL input, aerobic, 24 h
Experimental: Aerobic bacterial culture was conducted with E. coli K12 MG1655 (provided by D. Lee), E. coli Nissle 1917, and S. enterica serovar Typhimurium SL1344 (provided by D. Bumann, Biocenter Basel, Switzerland). The strains were streaked on lysogeny broth plates, incubated o.n. at 37°C and cultured in non-cation-adjusted MHB with aeration at 37°C and 220 rpm constant shaking.
To determine the MIC value, broth microdilutions were performed according to the standard protocol with some modifications ([119]). An overnight bacterial culture was diluted in a fresh ColB medium and grown to OD600 0.5 (mid-exponential phase). Fusobacteria were then diluted 1:2,500 or 1:250 in fresh MHB to obtain 1 × 10^5 CFU/mL or 1 × 10^6 CFU/mL as indicated. To determine the growth inhibition of P. gingivalis, an o.n. culture grown in BHI+ was diluted 1:1,500 in MHB to obtain 1 × 10^5 CFU/mL. E. coli K12, E. coli Nissle 1917, and S. enterica o.n. cultures grown in MHB were diluted 1:1,800 in fresh MHB to obtain 1 × 10^5 CFU/mL. […] Bacterial growth was monitored by measuring OD600 every 20 min with constant shaking in a plate reader (Biotek) under the normal atmospheric environment or positioned in the anaerobic chamber with double orbital shaking every 20 min prior to each measurement with 237 cpm at 37°C for 120 h.

Row | Substance | Growth inhibition of FNN23 ([1]; MHB) | Effect on FNN23 at higher inoculum ([1]; 10 µM, 10^7 CFU/mL in MHB (Fig. S3B)) | Growth inhibition of FNN23 by further batches of FUS79 ([1]; batch reordered from original vendor and in-house synthesis, MHB, 1 x 10^5 CFU per ml (Fig. S2A and B)) | MIC of FUS79 ([1]; dilution series, FNN23 in MHB at 1 × 10^5 CFU/mL input, anaerobic, 37°C, OD600 <0.01, three replicates (Fig. 3A)) [µM] | Effect on FNN23 in brain heart infusion (BHI) ([1]; peptide-rich medium BHI, 1 x 10^5 CFU per ml input (Fig. S3C)) | Effect on FNN23 in Columbia broth (ColB) ([1]; peptide-rich medium ColB, 1 x 10^5 CFU per ml input (Fig. S3C)) | Growth inhibition of FNN25 [2] | Growth inhibition of FNP [3] | Effect on growth of S. enterica [4]
1 | (RXR)4XB-GACATAATTGT [FUS79, non-targeting (RXR)4XB-PNA 11-mer control, (RXR)4XB-…] | completely inhibited growth; also recorded: inhibited the growth | no longer bactericidal | Both batches confirmed the FUS79-mediated growth inhibition | 10 | no effect | no effect | inhibited the growth | inhibited the growth | no specific bactericidal effect
2 | RXRRXRRXRRXRXB [PNAscr] | no impact on growth |  |  |  |  |  | growth retardation compared with the water control | growth retardation compared with the water control | 

— paper PMC12153356, “An antisense oligomer conjugate with unpredicted bactericidal activity against Fusobacterium nucleatum” (mBio, 2025)
